Data as given in the NIST ThermoML archive (doi:10.1021/je034007i).
Numbers after ± are expanded uncertainties.

What was measured:
[1] = excess molar enthalpy (molar enthalpy of mixing); xn = mol fraction of the nth substance listed; conditions: 308.15 K, 101.3 kPa, Liquid
[2] = 308.15 K; 101.33 kPa; Liquid; vibrating tube

OCCO [1,2-ethanediol] + C[S+](C)[O-]
excess molar enthalpy ([1]; x1 = 0.0506): -0.0466 ± 0.0011 kcal/mol
excess molar enthalpy ([1]; x1 = 0.0963): -0.0878 ± 0.00182 kcal/mol
excess molar enthalpy ([1]; x1 = 0.1378): -0.119 ± 0.00234 kcal/mol
excess molar enthalpy ([1]; x1 = 0.1757): -0.147 ± 0.00287 kcal/mol
excess molar enthalpy ([1]; x1 = 0.2423): -0.181 ± 0.00335 kcal/mol
excess molar enthalpy ([1]; x1 = 0.2989): -0.203 ± 0.00382 kcal/mol
excess molar enthalpy ([1]; x1 = 0.39): -0.219 ± 0.00406 kcal/mol
excess molar enthalpy ([1]; x1 = 0.4601): -0.218 ± 0.00406 kcal/mol
excess molar enthalpy ([1]; x1 = 0.5612): -0.198 ± 0.00359 kcal/mol
excess molar enthalpy ([1]; x1 = 0.6574): -0.169 ± 0.00311 kcal/mol
excess molar enthalpy ([1]; x1 = 0.7189): -0.147 ± 0.00287 kcal/mol
excess molar enthalpy ([1]; x1 = 0.7933): -0.118 ± 0.00234 kcal/mol
excess molar enthalpy ([1]; x1 = 0.8365): -0.0991 ± 0.00201 kcal/mol
excess molar enthalpy ([1]; x1 = 0.8847): -0.0728 ± 0.00155 kcal/mol
excess molar enthalpy ([1]; x1 = 0.911): -0.0595 ± 0.00131 kcal/mol
excess molar enthalpy ([1]; x1 = 0.9388): -0.044 ± 0.00105 kcal/mol
excess molar enthalpy ([1]; x1 = 0.9685): -0.0237 ± 0.000741 kcal/mol

CC(O)CO (configuration not stated) [1,2-propanediol]
mass density [2]: 1026.15 ± 0.26 kg/m3

CC(O)CO (configuration not stated) [1,2-propanediol] + C[S+](C)[O-]
excess molar enthalpy ([1]; x2 = 0.0389): -0.0194 ± 0.000669 kcal/mol
excess molar enthalpy ([1]; x2 = 0.0748): -0.039 ± 0.00098 kcal/mol
excess molar enthalpy ([1]; x2 = 0.1082): -0.0531 ± 0.00122 kcal/mol
excess molar enthalpy ([1]; x2 = 0.1392): -0.0645 ± 0.00141 kcal/mol
excess molar enthalpy ([1]; x2 = 0.1921): -0.0847 ± 0.00174 kcal/mol
excess molar enthalpy ([1]; x2 = 0.2444): -0.0962 ± 0.00196 kcal/mol
excess molar enthalpy ([1]; x2 = 0.3267): -0.104 ± 0.00208 kcal/mol
excess molar enthalpy ([1]; x2 = 0.3928): -0.101 ± 0.00203 kcal/mol
excess molar enthalpy ([1]; x2 = 0.4925): -0.0926 ± 0.00189 kcal/mol
excess molar enthalpy ([1]; x2 = 0.5929): -0.0788 ± 0.00165 kcal/mol
excess molar enthalpy ([1]; x2 = 0.66): -0.0691 ± 0.00148 kcal/mol
excess molar enthalpy ([1]; x2 = 0.7444): -0.0543 ± 0.00124 kcal/mol
excess molar enthalpy ([1]; x2 = 0.7952): -0.0446 ± 0.00108 kcal/mol
excess molar enthalpy ([1]; x2 = 0.8535): -0.0323 ± 0.00086 kcal/mol
excess molar enthalpy ([1]; x2 = 0.8859): -0.0234 ± 0.000741 kcal/mol
excess molar enthalpy ([1]; x2 = 0.9209): -0.0155 ± 0.000621 kcal/mol
excess molar enthalpy ([1]; x2 = 0.9588): -0.00719 ± 0.000478 kcal/mol

OCCOCCO [diethylene glycol]
mass density [2]: 1105.65 ± 0.56 kg/m3

OCCOCCO [diethylene glycol] + C[S+](C)[O-]
excess molar enthalpy ([1]; x1 = 0.0303): -0.0251 ± 0.000765 kcal/mol
excess molar enthalpy ([1]; x1 = 0.0588): -0.0476 ± 0.00112 kcal/mol
excess molar enthalpy ([1]; x1 = 0.0857): -0.0664 ± 0.00143 kcal/mol
excess molar enthalpy ([1]; x1 = 0.1111): -0.0834 ± 0.00172 kcal/mol
excess molar enthalpy ([1]; x1 = 0.1579): -0.109 ± 0.00217 kcal/mol
excess molar enthalpy ([1]; x1 = 0.2): -0.128 ± 0.00263 kcal/mol
excess molar enthalpy ([1]; x1 = 0.2727): -0.15 ± 0.00287 kcal/mol
excess molar enthalpy ([1]; x1 = 0.3332): -0.159 ± 0.00311 kcal/mol
excess molar enthalpy ([1]; x1 = 0.4285): -0.162 ± 0.00311 kcal/mol
excess molar enthalpy ([1]; x1 = 0.5295): -0.154 ± 0.00287 kcal/mol
excess molar enthalpy ([1]; x1 = 0.6): -0.145 ± 0.00287 kcal/mol
excess molar enthalpy ([1]; x1 = 0.6923): -0.124 ± 0.00239 kcal/mol
excess molar enthalpy ([1]; x1 = 0.75): -0.112 ± 0.00222 kcal/mol
excess molar enthalpy ([1]; x1 = 0.8182): -0.0909 ± 0.00186 kcal/mol
excess molar enthalpy ([1]; x1 = 0.8571): -0.0762 ± 0.0016 kcal/mol
excess molar enthalpy ([1]; x1 = 0.9): -0.0599 ± 0.00134 kcal/mol
excess molar enthalpy ([1]; x1 = 0.9474): -0.0347 ± 0.000908 kcal/mol

C[S+](C)[O-] [dimethyl sulfoxide]
mass density [2]: 1085.5 ± 0.55 kg/m3

OCCOCCOCCO [triethylene glycol]
mass density [2]: 1112.1 ± 0.56 kg/m3

OCCOCCOCCO [triethylene glycol] + C[S+](C)[O-]
excess molar enthalpy ([1]; x1 = 0.0217): -0.0287 ± 0.000813 kcal/mol
excess molar enthalpy ([1]; x1 = 0.0425): -0.0537 ± 0.00122 kcal/mol
excess molar enthalpy ([1]; x1 = 0.0625): -0.0751 ± 0.00158 kcal/mol
excess molar enthalpy ([1]; x1 = 0.0816): -0.0944 ± 0.00191 kcal/mol
excess molar enthalpy ([1]; x1 = 0.1176): -0.125 ± 0.00239 kcal/mol
excess molar enthalpy ([1]; x1 = 0.1509): -0.15 ± 0.00287 kcal/mol
excess molar enthalpy ([1]; x1 = 0.2104): -0.181 ± 0.00335 kcal/mol
excess molar enthalpy ([1]; x1 = 0.2621): -0.198 ± 0.00382 kcal/mol
excess molar enthalpy ([1]; x1 = 0.3477): -0.215 ± 0.00406 kcal/mol
excess molar enthalpy ([1]; x1 = 0.4444): -0.214 ± 0.00406 kcal/mol
excess molar enthalpy ([1]; x1 = 0.516): -0.207 ± 0.00382 kcal/mol
excess molar enthalpy ([1]; x1 = 0.6153): -0.186 ± 0.00359 kcal/mol
excess molar enthalpy ([1]; x1 = 0.6807): -0.168 ± 0.00311 kcal/mol
excess molar enthalpy ([1]; x1 = 0.7618): -0.137 ± 0.00263 kcal/mol
excess molar enthalpy ([1]; x1 = 0.81): -0.117 ± 0.00232 kcal/mol
excess molar enthalpy ([1]; x1 = 0.8648): -0.0917 ± 0.00186 kcal/mol
excess molar enthalpy ([1]; x1 = 0.9275): -0.0526 ± 0.0012 kcal/mol
